Here are results for three compounds from patent publication US7915242B2, “Vitamin D receptor antagonists and their use in treating asthma” (Wisconsin Alumni Research Foundation, priority 2004, dated 2011).

“Also recorded” adds a separate entry of the source.

The subject of one test is Brown Norway rats. The experiment in a line: Ovalbumin-induced allergic asthma, BALF cell counts. It is filed as in vivo, rat. The conditions noted are these: aerosolized 500 ng/Kg on Days 14 and 16. The method, then: 6-7 week old Brown Norway male rats were obtained from Harlan Sprague-Dawley (Madison, Wis.) and housed in shoebox cages. Animals were provided a purified rodent diet prepared in-house containing 0.47% calcium and 0.3% phosphorus, and water ad libitum. The diet was supplemented with 1.6 IU vitamin D3/g. Rats were sensitized on Days 0 and 7 with a 1 mL intraperitoneal (I.P.) injection of 1 mg/mL OVA in phosphate-buffered saline (PBS) precipitated 1:1 with Imject Alum (PIERCE, IL). Control animals were sensitized with PBS. The animals were then challenged with aerosolized OVA [1% (w/v)] or aerosolized PBS (control) on Days 14 and 16. This OVA-sensitization and -challenge protocol has been used extensively to generate asthma symptoms in rats. Aerosolized-PBS (200 μL) or aerosolized-OVA (200 μL) was delivered by using the Microsprayer Syringe Model 1C (PennCentury, Philadelphia, Pa.). Aerosolized-vehicle [aqueous solution containing 30% (v/v) propylene glycol and 5% ethanol], or aerosolized-1,25(OH)2D3 (500 ng/Kg of body weight) was administered on Days 14 and 16. There were 4 groups in the study. Group 1: Sensitized and challenged with PBS, no treatment. Group 2: Sensitized and challenged with OVA, no treatment. Group 3: Sensitized and challenged with OVA, vehicle treatment on Days 14 and 16. Group 4: Sensitized and challenged with OVA, 1,25(OH)2D3 treatment on Days 14 and 16. At the end of the study, 17 days after the first I.P. injection, lungs were lavaged five times with 5 mL/each of calcium- and magnesium-free PBS containing 0.05 mM EDTA (ethylenediamine tetraacetic acid). The lavage fluid was centrifuged at 1,000×g for 10 minutes. The supernatant was removed, and the cell pellet was resuspended in 1 mL cold PBS. Total cell counts in bronchoalveolar lavage fluid (BALF) was performed using a hemocytometer. Slides of BALF were prepared by cytospin-2 cytocentrifugation of an aliquot of the cell suspension, and a differential cell count to determine the number of leukocytes was performed after staining with Diff-Quick (IMED, Inc., CA).

A further test relates to BALBc mice. Kind of test: Asthma model, ovalbumin-sensitized mice. It counts as in vivo, mouse. The conditions noted are these: preliminary work. The method, then:
The fourth test performed on the analogs is treatment using an asthma model. For this test, BALBc mice are injected for 7 days with 10 micrograms of ovalbumin together with alum to sensitize the animals. These are given by intraperitoneal injection and at the end of 7 days, the asthmatic reaction to an inhaled dose of ovalbumin is examined. In this test, the ovalbumin as a 0.2% solution is delivered by nebulizer to the mouse. Air flow measures are carried out as described by Isenberg-Feig et al. in Current Allergy and Asthma Reports, 3:70-78 (2003) which is hereby incorporated by reference in its entirety and for all purposes as if fully set forth herein. Furthermore, the lungs are removed and sectioned for analysis. The degree of invasion of eosinophils into the bronchial tissue is used as a non-subjective measurement of asthmatic response. After the animals are sensitized and given the expected responses to ovalbumin, the animals are subjected to an aerosol that includes either a vitamin D antagonist of the invention or 1α,25-(OH)2D3. After exposure to the vitamin D antagonist of the invention or the 1α,25-(OH)2D3, the animals will be exposed to a nebulized dose of 0.2% ovalbumin. The presence of the antagonist will be found to block the asthmatic response to the inhaled ovalbumin. […]

The test system of a further test is mouse model of asthma. The conditions noted are these: Matheu et al., J Allergy Clin Immunol 112:585, 2003; cited from earlier work.
The target of test [1] is T1, full-length recombinant rat vitamin D receptor (Rattus norvegicus, UniProt P13053).
T1 construct: Full-length recombinant rat receptor is/was expressed in E. coli BL21(DE3) Codon Plus RIL cells; histidine tag (C); made in house; host or cells: E. coli BL21(DE3) Codon Plus RIL
T1 sequence (P13053 1-423): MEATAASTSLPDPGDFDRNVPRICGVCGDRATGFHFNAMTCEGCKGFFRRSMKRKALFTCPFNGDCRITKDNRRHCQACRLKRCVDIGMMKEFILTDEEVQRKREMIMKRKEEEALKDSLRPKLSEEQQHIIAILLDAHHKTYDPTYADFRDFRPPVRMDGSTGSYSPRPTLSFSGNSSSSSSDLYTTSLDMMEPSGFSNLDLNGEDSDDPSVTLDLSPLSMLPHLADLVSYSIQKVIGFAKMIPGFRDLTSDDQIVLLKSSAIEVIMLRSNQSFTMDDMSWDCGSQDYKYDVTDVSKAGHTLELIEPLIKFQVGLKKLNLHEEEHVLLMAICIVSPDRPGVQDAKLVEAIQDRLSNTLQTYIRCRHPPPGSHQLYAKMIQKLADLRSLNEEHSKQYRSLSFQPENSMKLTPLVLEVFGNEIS
The experiment in a line: Vitamin D receptor binding assay, competition with [3H]-1,25(OH)2D3. Conditions: relative to 1α,25-dihydroxyvitamin D3; FIG. 1. The text has this:
Full-length recombinant rat receptor is/was expressed in E. coli BL21(DE3) Codon Plus RIL cells and purified to homogeneity using two different column chromatography systems. The first system is/was a nickel affinity resin that utilizes the C-terminal histidine tag on this protein. The protein that is/was eluted from this resin is/was further purified using ion exchange chromatography (S-Sepharose Fast Flow). Aliquots of the purified protein are/were quick frozen in liquid nitrogen and stored at −80° C. until use. For use in binding assays, the protein is/was diluted in TEDK50 (50 mM Tris, 1.5 mM EDTA, pH 7.4, 5 mM DTT, 150 mM KCl) with 0.1% Chaps detergent. The receptor protein and ligan concentration is/was optimized such that no more than 20% of the added radiolabeled ligand is/was bound to the receptor.
Unlabeled ligands are/were dissolved in ethanol and the concentrations determined using UV spectrophotometry (1,25(OH)2D3: molar extinction coefficient=18,200 and λmax=265 nm; Analogs: molar extinction coefficient=42,000 and λmax=252 nm). […]
Radiolabeled and unlabeled ligands are/were added to 100 mcl of the diluted protein at a final ethanol concentration of ≦10%, mixed and incubated overnight on ice to reach binding equilibrium. […] Total binding is/was determined from the tubes containing only radiolabeled ligand.

In test [2] the test system is Human promyelocytic leukemia (HL60) cells. The experiment in a line: HL-60 cellular differentiation test (NBT reduction). It is filed as cell-based. The conditions noted are these: relative to 1α,25-dihydroxyvitamin D3; FIGS. 2-3. The method, then:
The compounds of the invention are/were dissolved in ethanol and the concentrations are/were determined using UV spectrophotometry. Serial dilutions are/were prepared so that a range of drug concentrations can be tested without changing the final concentration of ethanol (≦0.2%) present in the cell cultures.
Antagonism is/was tested by adding a combination of 1,25(OH)2D3 and the putative antagonist in the same well keeping the final ethanol concentration the same.
Human promyelocytic leukemia (HL60) cells are/were grown in RPMI-1640 medium containing 10% fetal bovine serum. The cells are/were incubated at 37° C. in the presence of 5% CO2.
HL60 cells are/were plated at 1.2×10^5 cells/mL. Eighteen hours after plating, cells in duplicate are/were treated with compound of the invention in ethanol. Four days post-dose, the cells are/were harvested and a nitro blue tetrazolium reduction assay is/was performed (Collins et al., J. Exp. Med. 149, 969-974, Appendix A (1979)). The percentage of differentiated cells is/was determined by counting a total of 200 cells and recording the number that contained intracellular black-blue formazan deposits. Verification of differentiation to monocytic cells is/was determined by measuring phagocytic activity. All drug concentrations are/were tested in duplicate.

Test [3] deals with vitamin D 24-hydroxylase (CYP24) promoter luciferase reporter. The experiment in a line: Reporter gene assay, CYP24 promoter-luciferase in ROS-17/2.8 osteoblast cells. It is filed as cell-based. Conditions: Ros17/2.8 (bone) cells; FIG. 4. The source says: A reporter gene assay is/was used in which the promoter to the vitamin D 24-hydroxylase, i.e. CYP24 is/was placed in front of a luciferase reporter and is/was permanently transfected into ROS-17/2.8 osteoblast cell cultures as previously described (see Arbour, N. C., T. K. Ross, C. Zierold, J. M. Prahl, and H. F. DeLuca. A Highly Sensitive Method for Large-Scale Measurements of 1,25-Dihydroxyvitamin D. Analyt. Biochem. 255, 148-154, (1998) which is hereby incorporated by reference in its entirety and for all purposes as if fully set forth herein). These cells are/were grown to almost confluency at which time the analog or the standard 1α,25-(OH)2D3 is/was added. After 4 hours of incubation, the cells are/were ruptured and luciferase is/was measured by the methods provided by the Promega Kit. These experiments show the level of activity of the vitamin D analogs of the invention at transcription.
The phrase “RLU” refers to relative luciferase units.
(In general: A reporter such as luciferase makes a cellular process visible.)

The test system is the same in test [4]. Kind of test: Competition for transcription activity, analog plus 1,25(OH)2D3 in the reporter gene assay. Conditions: with 1α,25-dihydroxyvitamin D3; FIGS. 5-6. It counts as cell-based. As for the experimental part:
Antagonism is/was tested by adding a combination of 1,25(OH)2D3 and the putative antagonist in the same well keeping the ethanol concentration the same.
The third test that is performed is competition for transcription activity. Again, the ROS-17/2.8 osteoblast cells that contain the reporter gene system described above are employed. A dose-response curve is constructed with 1α,25-(OH)2D3 and another 1α,25-(OH)2D3 dose response curve is prepared with increasing concentrations of antagonist or analogs of the invention. Analogs that prevent 1α,25-(OH)2D3-induced transcription, are defined using this technique as either weak agonist or a complete antagonist of the VDR for 1α,25-(OH)2D3.

Test [5] relates to Sprague-Dawley rats. Kind of test: Bone calcium mobilization (serum calcium). It is filed as in vivo, rat. Conditions: four ip doses, even at 2,900 pmol/day, FIG. 7. The method, then:
(§1) Male, weanling Sprague-Dawley rats are/were placed on Diet 11 (0.47% Ca) diet +AEK for one week followed by Diet 11 (0.02% Ca) +AEK for 3 weeks. The rats are/were then switched to a diet containing 0.47% Ca for one week followed by two weeks on a diet containing 0.02% Ca. Dose administration began during the last week on 0.02% calcium diet. Four consecutive ip doses are/were given approximately 24 hours apart. Twenty-four hours after the last dose, blood is/was collected from the severed neck, and the concentration of serum calcium is/was determined as a measure of bone calcium mobilization. The first 10 cm of the intestine is/was also collected for intestinal calcium transport analysis using the everted gut sac method.
(§2) Antagonism is/was tested by administering a combination of 1,25(OH)2D3 and the putative antagonist to the animal simultaneously.

The subject of test [6] is Sprague-Dawley rats. Kind of test: Intestinal calcium transport (everted gut sac). It is filed as in vivo, rat. Conditions: four ip doses, FIG. 8. The method, then: as §1, §2

Take `C=C1/C(=C\C=C2/CCC[C@]3(C)[C@@H]([C@H](C)CCCC(C)(C)O)CC[C@@H]23)C[C@@H](O)C[C@@H]1O` [1,25(OH)2D3, 1α,25-dihydroxycholecalciferol]: the “total cell counts in BALF after OVA challenge” value in the test on Brown Norway rats (FIG. 9) is recorded as “reduced; also recorded: inhibits the OVA (ovalbumin)-mediated increase in total number of cells in BALF”. For the same compound, in the test on Brown Norway rats (FIG. 11), the “number of eosinophils in BALF after OVA challenge” value is given as “increased OVA-induced eosinophils recruitment; also recorded: increases the OVA-induced eosinophils count in BALF compared to the control”. Also, the “number of macrophages in BALF after OVA challenge” value in the test with Brown Norway rats (versus control (PBS), FIG. 10) is “decreased the number of macrophages; also recorded: decreases the number of macrophages compared to the control”. The “severity of the asthmatic response to ovalbumin” value in the test on BALBc mice is “increases the severity of the asthmatic response to ovalbumin”. For the same compound, the “asthma symptoms in a mouse model of asthma” value in the test with mouse model of asthma was “both triggers and exacerbates asthma symptoms”.

With `C=C1[C@H](O)CC(=C/C=C2\CCC[C@]3(C)[C@@H]([C@H](C)/C=C/[C@@H](O)C4(C(=O)OCCCC)CC4)CC[C@@H]23)C[C@H]1O` [OU-72, (22E)-(24R)-25-carbobutoxy-2-methylene-26,27-cyclo-22-dehydro-1α,24-dihydroxy-19-norvitamin D3], in [1], the “binding to the vitamin D receptor (competition with [3H]-1,25-(OH)2-D3)” value was “approximately equal to the native hormone”. The “induction of differentiation of HL-60 cells” value in test [2] is “less active than 1α,25-dihydroxyvitamin D3”. In addition, the “in vitro transcription activity (reporter gene)” value in test [3] is “active in stimulating transcription”. The “antagonistic activity on transcription when administered along with the native hormone” value in [4] is listed as “shows antagonistic activity”. Further, the “bone calcium mobilization (calcemic activity)” value with Sprague-Dawley rats [5] was “no calcemic activity”. In addition, the intestinal calcium transport result with Sprague-Dawley rats [6] is listed as “retain the ability to elevate intestinal calcium transport”.

With `C=C1[C@H](O)CC(=C/C=C2\CCC[C@]3(C)[C@@H]([C@H](C)/C=C/[C@@H](OCCCC)C4(C(=O)OCCCC)CC4)CC[C@@H]23)C[C@H]1O` [CN-67, (22E)-(24R)-24-butoxy-25-carbobutoxy-2-methylene-26,27-cyclo-22-dehydro-1α-hydroxy-19-norvitamin D3], the “binding to the vitamin D receptor (competition with [3H]-1,25-(OH)2-D3)” value in [1] was “significantly less active than 1α,25-dihydroxyvitamin D3”. In addition, in test [2], the “induction of differentiation of HL-60 cells” value is on record as “less active than 1α,25-dihydroxyvitamin D3”. Also, the “in vitro transcription activity (reporter gene)” value in [3] is reported as “does not appear to be active in causing transcription”. Besides, the “antagonistic activity on transcription when administered along with the native hormone” value in test [4] was “appears to exhibit antagonistic activity”.
